Test [1] deals with T1, human SLC6A19 (Homo sapiens, UniProt Q695T7).
T1 construct: expressed in transfected cells
T1 sequence (Q695T7 1-634): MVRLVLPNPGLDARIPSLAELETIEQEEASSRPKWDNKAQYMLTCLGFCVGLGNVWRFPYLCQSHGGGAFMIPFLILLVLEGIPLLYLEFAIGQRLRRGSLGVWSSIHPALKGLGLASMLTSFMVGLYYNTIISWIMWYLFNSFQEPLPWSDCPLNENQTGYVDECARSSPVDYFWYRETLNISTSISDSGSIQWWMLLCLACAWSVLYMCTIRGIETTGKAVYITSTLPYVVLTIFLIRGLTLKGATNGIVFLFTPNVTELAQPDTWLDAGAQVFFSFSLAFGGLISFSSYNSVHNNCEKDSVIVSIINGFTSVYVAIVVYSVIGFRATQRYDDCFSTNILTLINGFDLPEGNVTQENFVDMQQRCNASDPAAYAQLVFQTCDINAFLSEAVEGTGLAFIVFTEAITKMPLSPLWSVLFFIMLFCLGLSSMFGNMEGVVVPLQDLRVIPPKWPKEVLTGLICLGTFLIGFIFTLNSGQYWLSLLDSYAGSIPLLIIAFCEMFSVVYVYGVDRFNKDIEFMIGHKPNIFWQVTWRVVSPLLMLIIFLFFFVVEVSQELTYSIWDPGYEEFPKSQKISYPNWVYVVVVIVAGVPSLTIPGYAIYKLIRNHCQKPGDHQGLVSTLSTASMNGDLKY
T1 sequence (Q9HBJ8 15-222 partner): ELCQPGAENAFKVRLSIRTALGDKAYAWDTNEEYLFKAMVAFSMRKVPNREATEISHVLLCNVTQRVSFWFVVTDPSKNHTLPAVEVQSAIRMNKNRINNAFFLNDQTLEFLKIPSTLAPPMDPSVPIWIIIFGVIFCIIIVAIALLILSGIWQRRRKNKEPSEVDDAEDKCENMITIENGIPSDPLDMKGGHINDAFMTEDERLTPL
Put plainly: Example B-1: L-[3H]leucine uptake, liquid scintillation, in CHO cells with doxycycline-inducible expression of human SLC6A19 and TMEM27. It is filed as cell-based. The settings on record: read-out: SLC6A19_Radioligand Uptake Assay IC50. In a few lines: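 CHO cells induced 18 h with 1 µg/mL doxycycline (uninduced wells as expression control), washed in HBSS, compound in 8-point 3-fold series (0.5% DMSO), then 1.6 mM final [3H]:cold leucine (1:15000) uptake for 20 min at 37 °C. Scintillation counting; activity normalized to positive control (0%) and DMSO (100%).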

In test [2] the target is T1, human SLC6A19. Description: Example B2: 13C6,15N-isoleucine uptake, RapidFire mass spectrometry, in CHO cells with doxycycline-inducible expression of human SLC6A19 and TMEM27. It is filed as cell-based. The settings on record: read-out: SLC6A19_RapidFire Uptake Assay IC50. The essentials: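 Labelled isoleucine (13C6,15N; 2 mM added) was given 20 min at 37 °C, following a 20-min compound pre-treatment (10-point 2-fold series, duplicate). Cells were doxycycline-induced CHO co-expressing human SLC6A19 and TMEM27. Intracellular label was quantified by RapidFire-MS peak areas against a 13C-leucine standard.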

The structures appear in SMILES notation.

One may read the IC50 as the concentration needed to halve the response being measured. Take `Cc1conc1N1CCC[C@@H](N(C)C(=O)NCc2cc3cc(Cl)ccc3[nH]2)C1` [Compound 234, (R)-3-((5-chloro-1H-indol-2-yl)methyl)-1-methyl-1-(1-(4-methylisoxazol-3-yl)piperidin-3-yl)urea]: the IC50 turned out to be 367 nM at human SLC6A19 [1] and 255 nM at human SLC6A19 [2].

For the compound `CC(=O)N1CCC[C@@H](N(C)C(=O)NCc2cc3[nH]cc(C)c3cc2Cl)C1` [Compound 235, (R)-1-(1-acetylpiperidin-3-yl)-3-((5-chloro-3-methyl-1H-indol-6-yl)methyl)-1-methylurea], the concentration for half-maximal inhibition (IC50) on human SLC6A19 [1] stood at 673 nM; at human SLC6A19 [2], 893 nM.

Regarding `Cc1cc(C(=O)N2CCC[C@@H](N(C)C(=O)NCc3cc4cc(Cl)ccc4[nH]3)C2)nn1C` [Compound 236, (R)-3-((5-chloro-1H-indol-2-yl)methyl)-1-(1-(1,5-dimethyl-1H-pyrazole-3-carbonyl)piperidin-3-yl)-1-methylurea], the IC50 at human SLC6A19 [1] was found to be 975 nM; on human SLC6A19 [2] it was 805 nM.

Turning to `CN(C(=O)NCc1cc2cc(Cl)ccc2[nH]1)[C@@H]1CCCN(C(=O)c2cccnc2)C1` [Compound 237, (R)-3-((5-chloro-1H-indol-2-yl)methyl)-1-methyl-1-(1-nicotinoylpiperidin-3-yl)urea], the results for the IC50 on human SLC6A19 [1] and on human SLC6A19 [2] were 434 nM and 1210 nM, respectively.

As for `CN(C(=O)NCc1cc2cc(Cl)ccc2[nH]1)[C@@H]1CCCN(C(=O)c2cnoc2)C1` [Compound 238, (R)-3-((5-chloro-1H-indol-2-yl)methyl)-1-(1-(isoxazole-4-carbonyl)piperidin-3-yl)-1-methylurea], the IC50 at human SLC6A19 [1] turned out to be 283 nM; on human SLC6A19 [2], 836 nM.

`CN(C(=O)NCc1cc2cc(Cl)ccc2[nH]1)[C@@H]1CCCN(C(=O)c2cnco2)C1` [Compound 239, (R)-3-((5-chloro-1H-indol-2-yl)methyl)-1-methyl-1-(1-(oxazole-5-carbonyl)piperidin-3-yl)urea]: the IC50 came out at 209 nM on human SLC6A19 [1] and 287 nM on human SLC6A19 [2].

Consider `CCn1ccc(C(=O)N2CCC[C@@H](N(C)C(=O)NCc3cc4cc(Cl)ccc4[nH]3)C2)n1` [Compound 240, (R)-3-((5-chloro-1H-indol-2-yl)methyl)-1-(1-(1-ethyl-1H-pyrazole-3-carbonyl)piperidin-3-yl)-1-methylurea], for which the results for the IC50 on human SLC6A19 [1] and at human SLC6A19 [2] were 154 nM and 160 nM, respectively.

In the case of `CN(C(=O)NCc1cc2cc(Cl)ccc2[nH]1)[C@@H]1CCCN(C(=O)c2ccccn2)C1` [Compound 241, (R)-3-((5-chloro-1H-indol-2-yl)methyl)-1-methyl-1-(1-picolinoylpiperidin-3-yl)urea], the IC50 on human SLC6A19 [1] was determined as 387 nM; at human SLC6A19 [2], 626 nM.

On to `CC(=O)N1CCC[C@@H](N(C)C(=O)NCCc2ccc(F)c(-c3cc4ccccc4[nH]3)c2)C1` [Compound 244, (R)-1-(1-acetylpiperidin-3-yl)-3-(4-fluoro-3-(1H-indol-2-yl)phenethyl)-1-methylurea], for which the IC50 on human SLC6A19 [1] is above 10000 nM; at human SLC6A19 [2], 7080 nM.

For the compound `CC(=O)N1CCC[C@@H](N(C)C(=O)NCCc2cc(-c3cc4ccccc4[nH]3)c(Cl)cc2F)C1` [Compound 245, (R)-1-(1-acetylpiperidin-3-yl)-3-(4-chloro-2-fluoro-5-(1H-indol-2-yl)phenethyl)-1-methylurea], the IC50 at human SLC6A19 [1] turned out to be 459 nM; on human SLC6A19 [2] it was 151 nM.
